Key:
TRPC5–C1 channels = TRPC5–C1 channels (Homo sapiens, UniProt P48995+Q9UL62); assay: [Ca2+]i measurement in (Tet+) HEK T-REx cells expressing hTRPC5-C1 concatemer; assay type: cell-based
Description: HEK T‐REx™ cell line was transfected with TRPC5‐SYFP2 or TRPC4‐SYFP2 using FuGENE® HD transfection reagent. After 48 hr, cells were put under antibiotic selection using 400 μg·ml^−1 zeocin and 10 μg·ml^−1 blasticidin S (Invivogen, San Diego, California, USA). Medium changes were carried out regularly to remove dead cells. HEK T‐REx cells expressing tetracycline‐inducible human TRPC5, TRPC4–C1, and TRPC5–C1 were created as described previously (Akbulut et al., 2015; Ludlow et al., 2017; Rubaiy, Ludlow, Henrot, et al., 2017). TRPC5–C1 and TRPC4–C1 concatemers allow expression of functional channels with defined 2:2 stoichiometry that display ion permeability and current–voltage relationships distinct from those of homomeric TRPC4:C4 or TRPC5:C5 channels and consistent with those obtained upon co‐expression of TRPC1 with TRPC4 or TRPC5 (Ludlow et al., 2017; Rubaiy, Ludlow, Bon, & Beech, 2017; Rubaiy, Ludlow, Henrot, et al., 2017). Cells were cultured in DMEM‐F12 GlutaMAX (Invitrogen, Paisley, UK) containing 10% FBS (Sigma‐Aldrich, Gillingham, UK), with the addition of blasticidin (10 μg·ml^−1) and zeocin (400 μg·ml^−1) to maintain the stable incorporation of the tetracycline repressor and the channel of interest, respectively. Expression of proteins was induced by the addition of tetracycline (1 μg·ml^−1, 24 hr). Cells were maintained in a humidified incubator with 5% CO2 at 37°C. HEK 293 cells stably expressing tetracycline‐regulated human http://www.guidetopharmacology.org/GRAC/ObjectDisplayForward?objectId=494 were prepared similarly and have also been described previously (McHugh, Flemming, Xu, Perraud, & Beech, 2003). For experiments using transient co‐expression of TRPC1 and TRPC5, HEK cells at 40–60% confluency were transfected with pIRES2‐AcGFP1 and pIRES2‐DsRed‐Express2 plasmids containing human TRPC1 and TRPC5, respectively, using Lipofectamine 3000 (ThermoFisher Scientific, Yokohama, Japan). All experiments using transient expression were performed within 48 hr after transfection. […]

TRPC4:C1 channels = TRPC4:C1 channels (Homo sapiens, UniProt P48995+Q9UBN4); assay: Excised outside-out patch-clamp, HEK 293 cells transiently co-expressing hTRPC4 and hTRPC1; assay type: cell-based; set-up: expressed in transfected cells; host or cells: HEK 293 (transient co-expression); details: 30 nM EA; at 3 to 100 nM AM237
Description: For electrophysiology experiments, cells were plated at a low density of 20–30% onto round or square glass coverslips (13 mm diameter or 5 × 5 mm), and TRPC expression in HEK T‐REx was induced with 1 μg·ml^−1 tetracycline 24 hr before experimentation. Experiments were carried out at room temperature. Extracellular solution consisted of SBS. Patch‐clamp recordings were performed in whole‐cell mode (Figure S7) and in excised outside‐out patch mode under voltage clamp at room temperature using 2–4 MΩ patch pipettes fabricated from borosilicate glass capillaries with an outside diameter of 1 mm and an inside diameter of 0.58 mm (Harvard Apparatus). The voltage protocol comprised voltage ramps applied from −100 to +100 mV every 10 s from a holding potential of 0 mV. The patch‐clamp currents were recorded using Axopatch 200B or HEKA EPC‐800 amplifiers, digitized by a Digidata 1440 or PCI6229 (National Instruments Japan, Tokyo, Japan) and recorded to a computer using pCLAMP10 (Molecular Devices) or WinWCPV4.5 (developed by Dr John Dempster, University of Strathclyde, UK). The data were filtered at 1 kHz and analysed offline using Clampfit 10.2 software or WinWCPV4.5 and Origin 9.1 software (OriginLab, Northampton, MA). […]

WT HEK 293 cells = assay: Whole-cell patch-clamp in WT HEK 293 cells; assay type: cell-based, human; details: AM237 1–100 nM; EA 30 nM
Description: For electrophysiology experiments, cells were plated at a low density of 20–30% onto round or square glass coverslips (13 mm diameter or 5 × 5 mm), and TRPC expression in HEK T‐REx was induced with 1 μg·ml^−1 tetracycline 24 hr before experimentation. Experiments were carried out at room temperature. Extracellular solution consisted of SBS. Patch‐clamp recordings were performed in whole‐cell mode (Figure S7) and in excised outside‐out patch mode under voltage clamp at room temperature using 2–4 MΩ patch pipettes fabricated from borosilicate glass capillaries with an outside diameter of 1 mm and an inside diameter of 0.58 mm (Harvard Apparatus). The voltage protocol comprised voltage ramps applied from −100 to +100 mV every 10 s from a holding potential of 0 mV. […] All solutions were filtered using a 0.2 μm filter (Sartorius, UK).

TRPC5–C1 channels, sequence (Q9UL62 whole entry): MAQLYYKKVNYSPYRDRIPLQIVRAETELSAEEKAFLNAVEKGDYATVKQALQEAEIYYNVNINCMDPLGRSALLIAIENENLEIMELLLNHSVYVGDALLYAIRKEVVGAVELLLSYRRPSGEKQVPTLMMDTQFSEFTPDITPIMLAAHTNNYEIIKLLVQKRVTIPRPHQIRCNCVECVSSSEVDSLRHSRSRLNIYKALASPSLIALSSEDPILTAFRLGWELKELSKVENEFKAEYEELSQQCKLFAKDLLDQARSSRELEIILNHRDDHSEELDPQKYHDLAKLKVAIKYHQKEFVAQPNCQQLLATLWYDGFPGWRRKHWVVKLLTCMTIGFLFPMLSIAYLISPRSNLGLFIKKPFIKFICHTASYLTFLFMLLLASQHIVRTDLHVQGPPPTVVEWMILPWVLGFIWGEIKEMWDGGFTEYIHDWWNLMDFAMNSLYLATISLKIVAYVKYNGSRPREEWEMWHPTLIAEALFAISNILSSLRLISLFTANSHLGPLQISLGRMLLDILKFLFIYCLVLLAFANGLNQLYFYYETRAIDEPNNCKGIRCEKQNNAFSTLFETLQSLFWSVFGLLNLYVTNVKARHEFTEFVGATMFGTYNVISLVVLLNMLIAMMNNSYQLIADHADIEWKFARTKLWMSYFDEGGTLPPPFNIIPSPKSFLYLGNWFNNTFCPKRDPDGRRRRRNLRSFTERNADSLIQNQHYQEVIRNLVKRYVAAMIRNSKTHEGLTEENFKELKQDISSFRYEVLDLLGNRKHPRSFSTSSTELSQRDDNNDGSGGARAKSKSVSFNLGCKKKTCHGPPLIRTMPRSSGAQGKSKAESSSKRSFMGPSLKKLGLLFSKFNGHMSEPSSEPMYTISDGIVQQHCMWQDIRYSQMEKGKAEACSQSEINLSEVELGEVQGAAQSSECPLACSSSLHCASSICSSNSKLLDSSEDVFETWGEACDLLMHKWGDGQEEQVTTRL
TRPC5–C1 channels, sequence (P48995 whole entry): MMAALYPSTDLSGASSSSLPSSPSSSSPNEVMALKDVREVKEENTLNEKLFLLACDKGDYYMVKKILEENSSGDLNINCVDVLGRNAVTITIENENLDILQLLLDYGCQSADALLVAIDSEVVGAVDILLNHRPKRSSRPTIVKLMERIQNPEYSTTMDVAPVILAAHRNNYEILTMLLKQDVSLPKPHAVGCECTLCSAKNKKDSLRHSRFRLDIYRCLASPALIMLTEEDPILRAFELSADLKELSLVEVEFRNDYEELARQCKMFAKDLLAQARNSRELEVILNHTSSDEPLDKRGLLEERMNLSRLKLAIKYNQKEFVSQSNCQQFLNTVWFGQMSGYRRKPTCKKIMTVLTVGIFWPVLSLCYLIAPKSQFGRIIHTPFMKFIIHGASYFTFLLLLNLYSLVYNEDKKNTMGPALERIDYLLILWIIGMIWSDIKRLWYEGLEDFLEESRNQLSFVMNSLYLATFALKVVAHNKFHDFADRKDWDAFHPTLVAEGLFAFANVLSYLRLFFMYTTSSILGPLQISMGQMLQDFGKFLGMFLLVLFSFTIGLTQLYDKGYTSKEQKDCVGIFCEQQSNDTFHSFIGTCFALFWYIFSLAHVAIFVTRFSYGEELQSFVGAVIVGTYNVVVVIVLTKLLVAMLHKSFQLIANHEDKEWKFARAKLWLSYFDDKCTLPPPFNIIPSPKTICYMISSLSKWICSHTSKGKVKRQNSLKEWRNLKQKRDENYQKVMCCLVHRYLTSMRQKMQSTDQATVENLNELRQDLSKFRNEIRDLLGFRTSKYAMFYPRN
TRPC4:C1 channels, sequence (Q9UBN4 whole entry): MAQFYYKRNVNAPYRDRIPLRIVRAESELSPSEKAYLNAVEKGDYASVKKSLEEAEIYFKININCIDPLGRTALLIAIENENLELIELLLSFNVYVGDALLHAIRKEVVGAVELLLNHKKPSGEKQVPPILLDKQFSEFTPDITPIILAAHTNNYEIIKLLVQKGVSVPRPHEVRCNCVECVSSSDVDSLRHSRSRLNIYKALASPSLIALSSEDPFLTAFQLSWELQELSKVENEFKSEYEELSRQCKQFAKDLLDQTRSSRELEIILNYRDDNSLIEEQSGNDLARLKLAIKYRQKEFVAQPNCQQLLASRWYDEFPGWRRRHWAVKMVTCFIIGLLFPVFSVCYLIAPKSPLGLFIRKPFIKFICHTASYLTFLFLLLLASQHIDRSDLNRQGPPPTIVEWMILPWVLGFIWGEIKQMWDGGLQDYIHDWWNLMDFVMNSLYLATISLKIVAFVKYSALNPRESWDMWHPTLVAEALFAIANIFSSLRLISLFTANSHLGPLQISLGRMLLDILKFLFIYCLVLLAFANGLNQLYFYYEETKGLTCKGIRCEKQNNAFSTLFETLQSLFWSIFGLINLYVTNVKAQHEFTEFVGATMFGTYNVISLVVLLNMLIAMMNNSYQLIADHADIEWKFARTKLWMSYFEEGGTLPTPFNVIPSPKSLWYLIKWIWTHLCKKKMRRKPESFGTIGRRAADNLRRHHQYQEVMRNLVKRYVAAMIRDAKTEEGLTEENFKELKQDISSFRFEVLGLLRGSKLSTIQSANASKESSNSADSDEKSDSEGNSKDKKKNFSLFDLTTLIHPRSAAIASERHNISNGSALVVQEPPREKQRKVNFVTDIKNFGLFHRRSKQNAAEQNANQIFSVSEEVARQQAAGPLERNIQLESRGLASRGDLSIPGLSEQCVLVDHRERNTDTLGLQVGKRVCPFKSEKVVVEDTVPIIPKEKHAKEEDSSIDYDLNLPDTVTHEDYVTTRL
TRPC4:C1 channels, sequence (P48995 whole entry): as the sequence (P48995 whole entry) above

Which “Hill slope, inhibition of EA response” value (TRPC5–C1 channels) does the source give for `Cn1c(=O)n(CCCO)c(=O)c2c1nc(Oc1ccc(Cl)c(OC(F)(F)F)c1)n2Cc1ccc(Cl)cc1` [AM237] here?
The value was -1.2.

And the “Effect of pre-incubation on basal [Ca2+]i” value (TRPC5–C1 channels; 0.1–100 nM AM237)?
Its value is “did not raise”.

What about the “Activation upon acute administration ([Ca2+]i)” value (TRPC5–C1 channels; 3-300 nM AM237) of the same molecule?
The value was “lack of activation”.

And the “Inhibition of currents induced by EA” value (TRPC4:C1 channels)?
Its value is “full inhibition”.

What about the “Effect on whole-cell currents at +100 and -100 mV” value (WT HEK 293 cells) of the same molecule?
Its value is “no significant effect”.
